Measured values taken from PubChem BioAssay (NCI).
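Step 1: Grow cells in 96-well plates. Step 2: Expose to compound for 48 hours at 5 concentrations. Step 3: Interpolate endpoints linearly; if unreached, use highest concentration. GI50 is the concentration that inhibits growth by half. TGI: concentration producing complete growth inhibition.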

Experiments:
Assay in all cases: NCI tumour cell line growth inhibition, 48 h
MALME-3M melanoma = tested on: MALME-3M melanoma
SN12C renal = tested on: SN12C renal
786-0 renal = tested on: 786-0 renal
OVCAR-3 ovarian = tested on: OVCAR-3 ovarian
HCC-2998 colon = tested on: HCC-2998 colon
SNB-19 CNS = tested on: SNB-19 CNS
MOLT-4 leukemia = tested on: MOLT-4 leukemia
HL-60(TB) leukemia = tested on: HL-60(TB) leukemia
NCI-H23 lung = tested on: NCI-H23 lung
OVCAR-4 ovarian = tested on: OVCAR-4 ovarian
MCF7 breast = tested on: MCF7 breast
SK-MEL-28 melanoma = tested on: SK-MEL-28 melanoma
TK-10 renal = tested on: TK-10 renal
SK-OV-3 ovarian = tested on: SK-OV-3 ovarian
SK-MEL-5 melanoma = tested on: SK-MEL-5 melanoma
NCI/ADR-RES ovarian = tested on: NCI/ADR-RES ovarian
MDA-MB-435 = tested on: MDA-MB-435
IGROV1 ovarian = tested on: IGROV1 ovarian
CAKI-1 renal = tested on: CAKI-1 renal
K-562 leukemia = tested on: K-562 leukemia
HS 578T breast = tested on: HS 578T breast
UACC-257 melanoma = tested on: UACC-257 melanoma
NCI-H522 lung = tested on: NCI-H522 lung
NCI-H226 lung = tested on: NCI-H226 lung
MDA-MB-468 breast = tested on: MDA-MB-468 breast
T-47D breast = tested on: T-47D breast
SF-295 CNS = tested on: SF-295 CNS
U251 CNS = tested on: U251 CNS
SF-268 CNS = tested on: SF-268 CNS
HOP-92 NSCLC = tested on: HOP-92 NSCLC
SW-620 colon = tested on: SW-620 colon
SK-MEL-2 melanoma = tested on: SK-MEL-2 melanoma
SNB-75 CNS = tested on: SNB-75 CNS
SR leukemia = tested on: SR leukemia
HCT-15 colon = tested on: HCT-15 colon
MDA-MB-231 breast = tested on: MDA-MB-231 breast
CCRF-CEM leukemia = tested on: CCRF-CEM leukemia
OVCAR-8 ovarian = tested on: OVCAR-8 ovarian
OVCAR-5 ovarian = tested on: OVCAR-5 ovarian
NCI-H460 lung = tested on: NCI-H460 lung
KM12 colon = tested on: KM12 colon
ACHN renal = tested on: ACHN renal
BT-549 breast = tested on: BT-549 breast
RPMI-8226 leukemia = tested on: RPMI-8226 leukemia
A549 NSCLC = tested on: A549 NSCLC
M14 melanoma = tested on: M14 melanoma
RXF 393 renal = tested on: RXF 393 renal
PC-3 prostate = tested on: PC-3 prostate
UO-31 renal = tested on: UO-31 renal
COLO 205 colon = tested on: COLO 205 colon
LOX IMVI melanoma = tested on: LOX IMVI melanoma
HCT-116 colon = tested on: HCT-116 colon
DU-145 prostate = tested on: DU-145 prostate
EKVX NSCLC = tested on: EKVX NSCLC
HOP-62 NSCLC = tested on: HOP-62 NSCLC
UACC-62 melanoma = tested on: UACC-62 melanoma
A498 renal = tested on: A498 renal
SF-539 CNS = tested on: SF-539 CNS
HT29 colon = tested on: HT29 colon

What does the source list for `CC1(C)CC[C@]2(C(=O)O)CC[C@]3(C)C(=CCC4[C@@]5(C)C[C@@H](O)[C@@H]6OC(c7ccccc7F)OC[C@@]6(C)C5CC[C@]43C)C2C1` (stereo partly drawn)?
GI50 (MALME-3M melanoma): 5.08 µM; TGI (MALME-3M melanoma): 17.9 µM; GI50 (SN12C renal): 3.57 µM; TGI (SN12C renal): 15.7 µM; GI50 (786-0 renal): 4.4 µM; TGI (786-0 renal): 16 µM; GI50 (OVCAR-3 ovarian): 3.23 µM; TGI (OVCAR-3 ovarian): 13.1 µM; GI50 (HCC-2998 colon): 3.49 µM; TGI (HCC-2998 colon): 14.1 µM; GI50 (SNB-19 CNS): 3.75 µM; TGI (SNB-19 CNS): 15.8 µM; GI50 (MOLT-4 leukemia): 2.09 µM; TGI (MOLT-4 leukemia): 12 µM; GI50 (HL-60(TB) leukemia): 2.67 µM; TGI (HL-60(TB) leukemia): 9.82 µM; GI50 (NCI-H23 lung): 3.97 µM; TGI (NCI-H23 lung): 15.7 µM; GI50 (OVCAR-4 ovarian): 5.19 µM; TGI (OVCAR-4 ovarian): 19.4 µM; GI50 (MCF7 breast): 3.42 µM; TGI (MCF7 breast): 14.6 µM; GI50 (SK-MEL-28 melanoma): 5.96 µM; TGI (SK-MEL-28 melanoma): 18.4 µM; GI50 (TK-10 renal): 6.03 µM; TGI (TK-10 renal): 19.8 µM; GI50 (SK-OV-3 ovarian): 4.51 µM; TGI (SK-OV-3 ovarian): 17.4 µM; GI50 (SK-MEL-5 melanoma): 3.39 µM; TGI (SK-MEL-5 melanoma): 12.7 µM; GI50 (NCI/ADR-RES ovarian): 3.11 µM; TGI (NCI/ADR-RES ovarian): 14.5 µM; GI50 (MDA-MB-435): 5.58 µM; TGI (MDA-MB-435): 18.6 µM; GI50 (IGROV1 ovarian): 5.54 µM; TGI (IGROV1 ovarian): 18.1 µM; GI50 (CAKI-1 renal): 3.8 µM; TGI (CAKI-1 renal): 14.4 µM; GI50 (K-562 leukemia): 2.66 µM; TGI (K-562 leukemia): 84.2 µM; GI50 (HS 578T breast): 3.5 µM; TGI (HS 578T breast): 16.2 µM; GI50 (UACC-257 melanoma): 4.68 µM; TGI (UACC-257 melanoma): 18.2 µM; GI50 (NCI-H522 lung): 3.79 µM; TGI (NCI-H522 lung): 16.8 µM; GI50 (NCI-H226 lung): 3.3 µM; TGI (NCI-H226 lung): 15.1 µM; GI50 (MDA-MB-468 breast): 3.37 µM; TGI (MDA-MB-468 breast): 14 µM; GI50 (T-47D breast): 6.64 µM; TGI (T-47D breast): 24.7 µM; GI50 (SF-295 CNS): 2.72 µM; TGI (SF-295 CNS): 13 µM; GI50 (U251 CNS): 2.63 µM; TGI (U251 CNS): 12.9 µM; GI50 (SF-268 CNS): 5.04 µM; TGI (SF-268 CNS): 20.7 µM; GI50 (HOP-92 NSCLC): 2.65 µM; TGI (HOP-92 NSCLC): 11.9 µM; GI50 (SW-620 colon): 4.34 µM; TGI (SW-620 colon): 16.4 µM; GI50 (SK-MEL-2 melanoma): 4.83 µM; TGI (SK-MEL-2 melanoma): 20 µM; GI50 (SNB-75 CNS): 2.77 µM; TGI (SNB-75 CNS): 15 µM; GI50 (SR leukemia): 3.29 µM; TGI (SR leukemia): 21.9 µM; GI50 (HCT-15 colon): 2.14 µM; TGI (HCT-15 colon): 10.9 µM; GI50 (MDA-MB-231 breast): 9.03 µM; TGI (MDA-MB-231 breast): 21.3 µM; GI50 (CCRF-CEM leukemia): 2.53 µM; TGI (CCRF-CEM leukemia): 12.6 µM; GI50 (OVCAR-8 ovarian): 3.41 µM; TGI (OVCAR-8 ovarian): 15.6 µM; GI50 (OVCAR-5 ovarian): 9.04 µM; TGI (OVCAR-5 ovarian): 21.1 µM; GI50 (NCI-H460 lung): 3.67 µM; TGI (NCI-H460 lung): 14.1 µM; GI50 (KM12 colon): 3.7 µM; TGI (KM12 colon): 15.1 µM; GI50 (ACHN renal): 2.83 µM; TGI (ACHN renal): 12.3 µM; GI50 (BT-549 breast): 2.84 µM; TGI (BT-549 breast): 11.3 µM; GI50 (RPMI-8226 leukemia): 2.09 µM; TGI (RPMI-8226 leukemia): 16.1 µM; GI50 (A549 NSCLC): 1.62 µM; TGI (A549 NSCLC): 12.3 µM; GI50 (M14 melanoma): 6.64 µM; TGI (M14 melanoma): 20.6 µM; GI50 (RXF 393 renal): 2.54 µM; TGI (RXF 393 renal): 7.92 µM; GI50 (PC-3 prostate): 3.21 µM; TGI (PC-3 prostate): 18.3 µM; GI50 (UO-31 renal): 2.53 µM; TGI (UO-31 renal): 13.5 µM; GI50 (COLO 205 colon): 2.73 µM; TGI (COLO 205 colon): 8.52 µM; GI50 (LOX IMVI melanoma): 3.49 µM; TGI (LOX IMVI melanoma): 14.2 µM; GI50 (HCT-116 colon): 2.75 µM; TGI (HCT-116 colon): 11.7 µM; GI50 (DU-145 prostate): 6.27 µM; TGI (DU-145 prostate): 19.8 µM; GI50 (EKVX NSCLC): 3.16 µM; TGI (EKVX NSCLC): 14.5 µM; GI50 (HOP-62 NSCLC): 3.61 µM; TGI (HOP-62 NSCLC): 15 µM; GI50 (UACC-62 melanoma): 5.02 µM; TGI (UACC-62 melanoma): 18 µM; GI50 (A498 renal): 7.09 µM; TGI (A498 renal): 20.2 µM; GI50 (SF-539 CNS): 3.65 µM; TGI (SF-539 CNS): 13 µM; GI50 (HT29 colon): 3.6 µM; TGI (HT29 colon): 17.2 µM
